Measured values as given in PMC1971073, “Comparative genomics of bacterial and plant folate synthesis and salvage: predictions and validations” (BMC Genomics, 2007).

Target: T1, Arabidopsis ADCS (PabAa-PabAb) (Arabidopsis thaliana, UniProt Q8LPN3)
T1 construct: bifunctional PabAa-PabAb ADC synthase in pLOI707HE; extract of E. coli BN1163 (pabA pabB mutant)
T1 sequence (Q8LPN3 46-919): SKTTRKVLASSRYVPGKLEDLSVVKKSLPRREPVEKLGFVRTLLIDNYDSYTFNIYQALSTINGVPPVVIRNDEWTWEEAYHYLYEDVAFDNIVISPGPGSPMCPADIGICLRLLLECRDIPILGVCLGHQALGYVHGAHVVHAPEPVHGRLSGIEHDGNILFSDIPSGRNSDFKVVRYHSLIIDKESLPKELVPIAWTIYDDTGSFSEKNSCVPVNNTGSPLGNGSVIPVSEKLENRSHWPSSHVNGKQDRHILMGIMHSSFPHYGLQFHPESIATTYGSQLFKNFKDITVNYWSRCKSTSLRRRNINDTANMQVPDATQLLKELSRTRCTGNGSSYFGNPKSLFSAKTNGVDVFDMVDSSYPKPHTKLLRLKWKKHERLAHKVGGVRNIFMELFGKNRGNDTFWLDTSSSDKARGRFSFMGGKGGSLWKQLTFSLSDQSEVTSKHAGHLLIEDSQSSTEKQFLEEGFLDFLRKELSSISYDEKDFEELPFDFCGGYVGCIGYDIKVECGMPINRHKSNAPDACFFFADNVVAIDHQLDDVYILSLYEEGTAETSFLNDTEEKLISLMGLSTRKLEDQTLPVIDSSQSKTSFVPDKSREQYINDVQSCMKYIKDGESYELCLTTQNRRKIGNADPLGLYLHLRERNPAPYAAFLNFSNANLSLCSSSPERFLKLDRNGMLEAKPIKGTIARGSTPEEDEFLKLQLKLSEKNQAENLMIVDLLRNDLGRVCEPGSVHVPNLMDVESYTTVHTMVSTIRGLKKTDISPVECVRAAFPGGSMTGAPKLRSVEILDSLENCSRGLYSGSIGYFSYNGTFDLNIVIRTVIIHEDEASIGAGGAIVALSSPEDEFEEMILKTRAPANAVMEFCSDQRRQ
Test: pABA formation in cell extract, coupled to E. coli PabC (ADC lyase), HPLC with fluorescence detection
Format: biochemical
Details: E. coli PabC extract added, 37 °C, 1 h

SMILES	pABA formation in cell extract, coupled to E. coli PabC (ADC lyase), HPLC with f (glutamine as amino donor)	pABA formation in cell extract, coupled to E. coli PabC (ADC lyase), HPLC with f (chorismate as co-substrate)
C=C(O[C@@H]1C=C(C(=O)O)C=C[C@H]1O)C(=O)O [chorismate]	Arabidopsis PabAa-PabAb formed pABA only if PabAc was added	–
NC(=O)CC[C@H](N)C(=O)O [glutamine]	–	Arabidopsis PabAa-PabAb formed pABA only if PabAc was added
